Measured values from patent US12691070B2, “Cationic lipids and preparation method thereof” (RiboX Therapeutics HK Limited, priority 2023, dated 2026).

Key:
[1] = LNP size and polydispersity index (PDI) by dynamic light scattering; assay type: physicochemical; conditions: for Size: in nm (unit assumed)
In short: (§1)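 LNPs of ionizable lipid/DSPC/cholesterol/DMG-PEG 2000 (50:10:38.5:1.5) made by microfluidic mixing of luciferase circRNA or mRNA in pH 4.5 acetate with lipids in ethanol (3:1, 12 ml/min), ionizable lipid:nucleotide 15 or 6, then dialyzed against PBS. Size, PDI (DLS) and zeta potential on Zetasizer; encapsulation by Ribogreen ± Triton X-100.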

[2] = LNP zeta potential (Zetasizer); assay type: physicochemical
In short: as §1

[3] = RNA encapsulation efficacy by Quant-IT Ribogreen kit; assay type: physicochemical; conditions: for Encapsulation Efficiency %: LNP with cirRNA (SEQ ID NO: 1); for Encapsulation Efficiency: LNP with mRNA (SEQ ID NO: 2)
In short: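 Ribogreen read-out: encapsulation = 100% − (signal of intact RNA-LNPs / signal with Triton X-100). Particles: ionizable lipid:DSPC:Chol:DMG-PEG2000 50:10:38.5:1.5, ionizable lipid:ribonucleotide 15 or 6, final lipid 1.5–6 mM, PBS-dialyzed.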

[4] = test system: Hep G2 cells; test: In vitro expression of firefly-luciferase, Hep G2; assay type: cell-based
In short: (§2)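 Both cell lines receive RNA-LNPs carrying firefly-luciferase RNA at 100 ng/mL. Lysis follows washing at 72 h post-transfection, and luciferase activity is then quantified on a luminometer using a commercial luciferase assay reagent.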

[5] = test system: RAW 264.7 cells; test: In vitro expression of firefly-luciferase, RAW 264.7; assay type: cell-based
In short: as §2

[6] = test system: Hep G2 cells; test: In vitro toxicity (CellTiter-Glo cell viability), Hep G2; assay type: cell-based;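 also: percent of untreated cells luminescence signal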
In short: (§3)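 Cells were transfected with RNA-LNPs at 1 μg/mL and, 72 hours later, viability was measured by CellTiter-Glo luminescence. Values are cell viability calculated from the luminescence signal.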

[7] = test system: RAW 264.7 cells; test: In vitro toxicity (CellTiter-Glo cell viability), RAW 264.7; assay type: cell-based;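 also: percent of untreated cells luminescence signal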
In short: as §3

[8] = test system: BALB/C mice; test: In vivo expression, whole-body luminescence (IVIS)
Method: 6-8 week old, female BALB/C mice were injected with 0.05 mg*kg-1 of RNA-LNPs encoding for firefly-luciferase by intravenous injection. At 6 hours post injection, animals were intraperitoneally injected with 15 mg/ml of Luciferin substrate and whole-body luminescence was determined by a bioluminescent in vivo imaging system (IVIS).

[9] = test system: MCP-I; test: MCP-I cytokine elevation in serum; assay type: in vivo; conditions: cirRNA (SEQ ID NO: 1) LNPs, mice
Method: 6-8 week old, female BALB/C mice were injected with 0.5 mg*kg-1 of RNA LNPs by intravenous injection. At 2 and 24 hours post injection, animals were bled and sera concentrations of MCP-I were determined by an immunoassay (Luminex).

[10] = test system: Alanine Aminotransferase (ALT); test: Liver enzyme elevation in serum, ALT; assay type: in vivo; conditions: cirRNA (SEQ ID NO: 1) LNPs, BALB/C mice, intravenous 0.5 MPK
Method: (§4) 6-8 week old, female BALB/C mice were injected with 0.5 mg*kg-1 of RNA LNPs by intravenous injection. At 2 and 24 hours post injection, animals were bled and sera concentrations of Alanine Aminotransferase (ALT) and Aspartate Aminotransferase (AST) were determined by a blood chemistry analyzer.

[11] = test system: Aspartate Aminotransferase (AST); test: Liver enzyme elevation in serum, AST; assay type: in vivo; conditions: cirRNA (SEQ ID NO: 1) LNPs, BALB/C mice, intravenous 0.5 MPK
Method: as §4

[12] = test system: BALB/C mice; test: Local tolerance determination by footpad injection; assay type: in vivo; conditions: cirRNA (SEQ ID NO: 1) LNP, 0.175 mg*kg-1 subcutaneous into the footpad, 24 hours post minus prior
Method: 6-8 week old, female BALB/C mice were injected with 0.175 mg*kg-1 RNA LNPs by subcutaneous injection into the footpad. Prior to, and 24 hours post injections, injected footpad thickness was determined by a caliper.

[13] = cirRNA (SEQ ID NO: 1) LNPs, firefly-luciferase luminescence, Hep G2 cells
[14] = mRNA (SEQ ID NO: 2) LNP, 100 ng/mL, 72 hours post transfection, luciferase activity
[15] = cirRNA (SEQ ID NO: 1) LNPs, firefly-luciferase luminescence, RAW 264.7 cells
[16] = cirRNA (SEQ ID NO: 1) LNPs, Hep G2 cells
[17] = mRNA (SEQ ID NO: 2) LNP, 1 μg/mL, 72 hours post transfection
[18] = cirRNA (SEQ ID NO: 1) LNPs, RAW 264.7 cells
[19] = cirRNA (SEQ ID NO: 1) LNPs, BALB/C mice
[20] = mRNA (SEQ ID NO: 2) LNP, 0.05 mg*kg-1 intravenous, 6 hours post injection

| SMILES | PDI ([1]; LNP with cirRNA (SEQ ID NO: 1)) | Size ([1]; LNP with cirRNA (SEQ ID NO: 1)) | PDI ([1]; LNP with mRNA (SEQ ID NO: 2)) | Size ([1]; LNP with mRNA (SEQ ID NO: 2)) | Zeta (mV) ([2]; LNP with cirRNA (SEQ ID NO: 1)) | Zeta (mV) ([2]; LNP with mRNA (SEQ ID NO: 2)) | Encapsulation Efficiency % [3] | Encapsulation Efficiency [3] | In vitro Expression HepG2 [4, 13] | In vitro Expression HepG2 [4, 14] | In vitro Expression RAW [5, 15] | In vitro Expression RAW [5, 14] | In vitro Viability HepG2 [6, 16] | In vitro Viability HepG2 [6, 17] | In vitro Viability RAW [7, 18] | In vitro Viability RAW [7, 17] | In vivo Expression (Whole Body) [8, 19] | In vivo Expression (Whole Body) [8, 20] | MCP-I in Sera 2 hours After 0.5 MPK Injection [9] | MCP-I in Sera 24 hours After 0.5 MPK Injection [9] | also measured |
| --- | --- | --- | --- | --- | --- | --- | --- | --- | --- | --- | --- | --- | --- | --- | --- | --- | --- | --- | --- | --- | --- |
| CCCCCCCCC(CCCCCC)C(=O)OCCCCCCCCN(CCCCCCCCOC(=O)C(CCCCCC)CCCCCCCC)CCCOC(=O)NCCN1CCCCC1 (stereo not drawn) [Lipid 380] | 0.1668 | 112.8 | 0.02507 | 88.83 | −2.171 mV | −2.552 mV | 92% | 80.50% | 2.95E+07 | 7.30E+07 | 2.22E+06 | 1.45E+06 | 89% | 94% | 86% | 106% | 4.50E+08 | 4.00E+08 | 1168.73 pg/mL | 1025.26 pg/mL | ALT in Sera (IU/L) 2 hours After 0.5 MPK Injection [10]: 89.33 IU/L; ALT in Sera (IU/L) 24 hours After 0.5 MPK Injection [10]: 122.00 IU/L; AST in Sera (IU/L) 2 hours After 0.5 MPK Injection [11]: 196.33 IU/L; AST in Sera (IU/L) 24 hours After 0.5 MPK Injection [11]: 480.67 IU/L; Footpad Thickness (24 h−0 h, mm) [12]: 0.25 mm |
| CCCCCCCCCC(=O)OCCCCCCCN(CCCCCCCCOC(=O)C(CCCCCC)CCCCCCCC)CCOC(=O)NCCN(C)C (stereo not drawn) [Lipid 197] | 0.14 | 82.64 | 0.07142 | 113.7 | 5.5 mV | 13.59 mV | 96% | 79.87% | 6.41E+05 | 2.51E+07 | 1.87E+04 | 1.19E+07 | 88% | 116% | 0% | 0% | 3.04E+07 | 4.89E+08 | 1958.67 pg/mL | 122.47 pg/mL | ALT in Sera (IU/L) 2 hours After 0.5 MPK Injection [10]: 106.67 IU/L; ALT in Sera (IU/L) 24 hours After 0.5 MPK Injection [10]: 171.00 IU/L; AST in Sera (IU/L) 2 hours After 0.5 MPK Injection [11]: 215.67 IU/L; AST in Sera (IU/L) 24 hours After 0.5 MPK Injection [11]: 237.67 IU/L; Footpad Thickness (24 h−0 h, mm) [12]: 0.08 mm |
| CCCCC/C=C\C/C=C\CCCCCCCCN(CCCCCCCC(=O)OC(CCCCCCCC)CCCCCCCC)CCOC(=O)NCCN(C)C [Lipid 129, heptadecan-9-yl 2-methyl-10-((9Z,12Z)-octadeca-9,12-dien-1-yl)-6-oxo-7-oxa-2,5,10-triazaoctadecan-18-oate] | 0.08 | 88.9 | 0.1768 | 55.55 | 0.417 mV | 0.5475 mV | 96% | 90% | 8.56E+06 | 7.03E+06 | 8.78E+06 | 1.11E+06 | 79% | 100% | 7% | 97% | 1.69E+09 | 1.42E+08 | 3830.40 pg/mL | 272.54 pg/mL | ALT in Sera (IU/L) 2 hours After 0.5 MPK Injection [10]: 64.50 IU/L; ALT in Sera (IU/L) 24 hours After 0.5 MPK Injection [10]: 67.87 IU/L; AST in Sera (IU/L) 2 hours After 0.5 MPK Injection [11]: 188.97 IU/L; AST in Sera (IU/L) 24 hours After 0.5 MPK Injection [11]: 112.03 IU/L; Footpad Thickness (24 h−0 h, mm) [12]: 1.09 mm |
| CCCCC/C=C\C/C=C\CCCCCCCCN(CCCCCCCC(=O)OC(CCCCCCCC)CCCCCCCC)CCCOC(=O)NCCN(C)C [Lipid 270] | 0.258 | 66.18 | 0.1592 | 101.7 | 3.201 mV | 6.102 mV | 95% | 94.52% | 9.88E+06 | 2.31E+07 | 9.33E+06 | 3.27E+06 | 95% | 116% | 120% | 96% | 9.90E+07 | 3.45E+08 | 4192.67 pg/mL | 564.30 pg/mL | ALT in Sera (IU/L) 2 hours After 0.5 MPK Injection [10]: 253.00 IU/L; ALT in Sera (IU/L) 24 hours After 0.5 MPK Injection [10]: 79.00 IU/L; AST in Sera (IU/L) 2 hours After 0.5 MPK Injection [11]: 477.67 IU/L; AST in Sera (IU/L) 24 hours After 0.5 MPK Injection [11]: 220.00 IU/L; Footpad Thickness (24 h−0 h, mm) [12]: 0.65 mm |
| CCCCCCCCCCC(CCCCCCCC)COC(=O)CCCCCN(CCCCCC(=O)OCC(CCCCCCCC)CCCCCCCCCC)CCOC(=O)NCCN(C)C (stereo not drawn) [Lipid 170] | 0.08 | 96.82 | 0.0744 | 165.8 | −0.455 mV | 3.233 mV | 97% | 86.13% | 2.91E+07 | 2.23E+08 | 3.14E+06 | 2.87E+02 | 31% | 124% | 92% | 82% | 3.35E+08 | 1.02E+09 | 1322.04 pg/mL | 922.24 pg/mL | ALT in Sera (IU/L) 2 hours After 0.5 MPK Injection [10]: 62.53 IU/L; ALT in Sera (IU/L) 24 hours After 0.5 MPK Injection [10]: 66.47 IU/L; AST in Sera (IU/L) 2 hours After 0.5 MPK Injection [11]: 175.67 IU/L; AST in Sera (IU/L) 24 hours After 0.5 MPK Injection [11]: 120.57 IU/L; Footpad Thickness (24 h−0 h, mm) [12]: 0.95 mm |
| CCCCC/C=C\C/C=C\CCCCCCCCN(CCCCCCCC(=O)OC(CCCCCCCC)CCCCCCCC)CCOC(=O)NCCN1CCCCC1 [Lipid 127, heptadecan-9-yl 8-(((9Z,12Z)-octadeca-9,12-dien-1-yl)(2-(((2-(piperidin-1-yl)ethyl)carbamoyl)oxy)ethyl)amino)octanoate] | 0.04 | 71.42 | 0.1822 | 57.31 | −3.13 mV | −1.439 mV | 95% | 87% | 2.14E+06 | 1.75E+06 | 4.87E+06 | 5.53E+05 | 99% | 100% | 76% | 109% | 1.14E+09 | 8.69E+07 | 301.91 pg/mL | 128.65 pg/mL | ALT in Sera (IU/L) 2 hours After 0.5 MPK Injection [10]: 74.17 IU/L; ALT in Sera (IU/L) 24 hours After 0.5 MPK Injection [10]: 54.90 IU/L; AST in Sera (IU/L) 2 hours After 0.5 MPK Injection [11]: 161.17 IU/L; AST in Sera (IU/L) 24 hours After 0.5 MPK Injection [11]: 91.53 IU/L; Footpad Thickness (24 h−0 h, mm) [12]: 0.94 mm |
